The values below come from patent publication US8278464B2, “Insecticides” (Syngenta Crop Protection LLC, priority 2006, dated 2012).

The melting point is the temperature of the solid-liquid transition. For orientation: pest or weed control means the degree to which the test organism was suppressed or injured, in per cent. The low end stands for weak suppression, the high end for strong suppression.

The structures appear in SMILES notation.

The subject of data set [1] is Spodoptera littoralis (Egyptian Cotton Leafworm). Description: Activity against Spodoptera littoralis, cotton leaf discs sprayed (Example B1). The following applies: foliar, 72 h, L1 larvae, checked 3 days after treatment. The class given is in vivo. An excerpt:
Cotton leaf discs are placed on agar in a 24-well microtiter plate and sprayed with test solutions. After drying, the leaf discs are infested with 5 L1 larvae. The samples are checked for mortality, repellent effect, feeding behaviour, and growth regulation 3 days after treatment (DAT).

The subject of data set [2] is Heliothis virescens (Tobacco Budworm). Description: Activity against Heliothis virescens, eggs on artificial diet (Example B2). The class given is in vivo. Particulars: 96 h, eggs 0-24 h old, incubation 4 days. As for the experimental part: Eggs (0-24 h old) are placed in 24-well microtiter plate on artificial diet and treated with test solutions by pipetting. After an incubation period of 4 days, samples are checked for egg mortality, larval mortality, and growth regulation.

In data set [3] the test system is Plutella xylostella (Diamond Back Moth). Briefly: Activity against Plutella xylostella, artificial diet MTP (Example B3). The class given is in vivo. Particulars: 120 h, L2 larvae, incubation 5 days. How it is done:
(§1) 24-well microtiter plate (MTP) with artificial diet is treated with test solutions by pipetting. After drying, the MTP's are infested with larvae (L2) (10-15 per well). After an incubation period of 5 days, samples are checked for larval mortality, antifeedant and growth regulation. In this test, compounds listed in the Tables above show good activity. In particular compounds T13.1.2, T15.1.1, T15.1.91, T13.1.1, T9.1.2 (diastereomer A), T9.1.2 (diastereomer B), T16.1.1, T17.1.2 (diastereomer A), T17.1.2 (diastereomer B), T16.1.91, T13.1.92, T13.1.361, T13.1.391, T13.1.91, T13.1.6, T13.1.96, T44.1.2, T13.1.8, T13.1.23, T13.1.93, T13.1.113, T13.1.21, T13.1.111 have an activity of over 80% at 400 ppm.

In data set [4] the test system is Diabrotica balteata (Corn Root Worm). Briefly: Activity against Diabrotica balteata, artificial diet MTP (Example B4). The class given is in vivo. Particulars: 120 h, L2 larvae, incubation 5 days. As for the experimental part: as §1, with “(6-10” for “(10-15”, “B),” for “B), T16.1.1,”, “T13.1.92,” for “T13.1.92, T13.1.361, T13.1.391,”, “T13.1.23,” for “T13.1.23, T13.1.93,”

For data set [5], the system named is Myzus persicae (Green Peach Aphid). Description: Activity against Myzus persicae, systemic, pea seedlings (Example B6). The class given is in vivo. Particulars: 144 h, 6 days after introduction. An excerpt: Roots of pea seedlings, infested with an aphid population of mixed ages, are placed directly in the test solutions. 6 days after introduction, samples are checked for mortality and special effects on the plant.

Data set [6] has as its system Thrips tabaci (Onion Thrips). Description: Activity against Thrips tabaci, sunflower leaf discs (Example B7). In kind it is in vivo. Particulars: foliar, 144 h, incubation 6 days. How it is done:
Sunflower leaf discs are placed on agar in a 24-well microtiter plate and sprayed with test solutions. After drying, the leaf discs are infested with a thrips population of mixed ages. After an incubation period of 6 days, samples are checked for mortality and special effects (e.g. phytotoxicity).

The subject of data set [7] is Spodoptera littoralis (Cotton Leafworm). Briefly: Systemic insecticide test for Spodoptera littoralis, maize seedlings, 12.5 ppm (Example B9). The class given is in vivo. The following applies: 96 h, 12.5 ppm in water, systemic via maize seedlings, larvae incubated four days. As for the experimental part:
Four day old maize seedlings (Zea mais, variety Stoneville) are placed individual in vials containing 24 ml water into which the chemical is diluted at 12.5 ppm. Seedlings are allowed to grow for six days. Subsequently leaves are cut and placed in a Petri dish (5 cm diameter), inoculated with twelve to fifteen 1st instar S. littoralis larvae and incubated for four days in a growth chamber (25° C., 50% r.h., 18:6 L:D photo period). Number of alive insects are counted and percentage of dead calculated. Tests were conducted with one replicate.

`Cc1cc(C#N)cc(C(=O)NC2(C)CS(=O)(=O)C2)c1NC(=O)c1cc(OCC(F)(F)F)nn1-c1ncccc1Cl`: the melting point is 216 to 219 °C.

`Cc1cc(Cl)cc(C(=O)NC2(C)CS(=O)(=O)C2)c1NC(=O)c1cc(OCC(F)(F)F)nn1-c1ncccc1Cl`: the melting point is over 250 °C.

`CCC1(NC(=O)c2cc(Cl)cc(C)c2NC(=O)c2cc(C(F)(F)F)nn2-c2ncccc2Cl)CS(=O)(=O)C1` gave a melting point of 234 to 236 °C.

Consider `Cc1cc(Cl)cc(C(=O)NC2CS(=O)(=O)C2)c1NC(=O)c1cc(C(F)F)nn1-c1ncccc1Cl`, for which the melting point is 151 to 155 °C.

In turn, `Cc1cc(Cl)cc(C(=O)NC2(C)CS(=O)(=O)C2)c1NC(=O)c1cc(C(F)F)nn1-c1ncccc1Cl` registered a melting point of 170 to 173 °C.

Compound `Cc1cc(C#N)cc(C(=O)NC2CS(=O)(=O)C2)c1NC(=O)c1cc(C(F)F)nn1-c1ncccc1Cl` yielded a melting point of 158 to 160 °C.

For the compound `Cc1cc(C#N)cc(C(=O)NC2(C)CS(=O)(=O)C2)c1NC(=O)c1cc(C(F)F)nn1-c1ncccc1Cl`, the melting point was in the range of 238 to 241 °C.

Take `Cc1cc(Cl)cc(C(=O)NC2(C)CS(=O)(=O)C2)c1NC(=O)c1cc(Br)nn1-c1ncccc1Cl`: the melting point was 191 to 193 °C.

`Cc1cc(C#N)cc(C(=O)NC2(C)C[S+]([O-])C2)c1NC(=O)c1cc(OCC(F)(F)F)nn1-c1ncccc1Cl` (stereo not drawn): the melting point was in the range of 223 to 225 °C.

As to `Cc1cc(Cl)cc(C(=O)NC2(C)C[S+]([O-])C2)c1NC(=O)c1cc(OCC(F)(F)F)nn1-c1ncccc1Cl` (stereo not drawn), the melting point is 220 to 222 °C.

Regarding `Cc1cc(Cl)cc(C(=O)NC2C[S+]([O-])C2)c1NC(=O)c1cc(C(F)F)nn1-c1ncccc1Cl` (stereo not drawn), the melting point is 171 to 173 °C.

For the compound `Cc1cc(Cl)cc(C(=O)NC2(C)C[S+]([O-])C2)c1NC(=O)c1cc(C(F)F)nn1-c1ncccc1Cl` (stereo not drawn), the melting point lay within 169 to 173 °C.

For the compound `Cc1cc(C#N)cc(C(=O)NC2C[S+]([O-])C2)c1NC(=O)c1cc(C(F)F)nn1-c1ncccc1Cl` (stereo not drawn), the melting point is 230 to 233 °C.

`Cc1cc(C#N)cc(C(=O)NC2(C)C[S+]([O-])C2)c1NC(=O)c1cc(C(F)F)nn1-c1ncccc1Cl` (stereo not drawn) had a melting point of 235 to 237 °C.

As to `Cc1cc(Cl)cc(C(=O)NC2(C)C[S+]([O-])C2)c1NC(=O)c1cc(Br)nn1-c1ncccc1Cl` (stereo not drawn), the melting point was in the range of 244 to 247 °C.

`Cc1cc(C#N)cc(C(=O)NC2(C)C[S+]([O-])C2)c1NC(=O)c1cc(Br)nn1-c1ncccc1Cl` (stereo not drawn) returned a melting point of 244 to 249 °C.

The compound `Cc1cc(Cl)cc(C(=O)NC2C[S+]([O-])C2)c1NC(=O)c1cc(C(F)(F)F)nn1-c1ncccc1Cl` (single isomer, unassigned) gave a melting point of 241 to 244 °C.

Consider `Cc1cc(Cl)cc(C(=O)NC2CS(=O)(=O)C2)c1NC(=O)c1cc(C(F)(F)F)nn1-c1ncccc1Cl` [T13.1.1], for which the pest or weed control at 400 ppm in data set [1], in data set [2], in data set [3], in data set [4], in data set [5] and in data set [6] was over 80% in each case. The same compound had a pest or weed control at 12.5 ppm in data set [7] of over 80%.

Consider `Cc1cc(Cl)cc(C(=O)NC2CS(=O)(=O)C2)c1NC(=O)c1cc(Br)nn1-c1ncccc1Cl` [T13.1.6], for which the pest or weed control at 400 ppm in data set [1], in data set [2], in data set [3], in data set [4], in data set [5] and in data set [6] was over 80% throughout. The pest or weed control at 12.5 ppm in data set [7] is over 80%.

For `CCC1(NC(=O)c2cc(Cl)cc(C)c2NC(=O)c2cc(Br)nn2-c2ncccc2Cl)CS(=O)(=O)C1` [T13.1.8], the pest or weed control at 400 ppm in data set [1], in data set [2], in data set [3] and in data set [4] was over 80% in each case. Also, the pest or weed control at 12.5 ppm in data set [7] was over 80%.

As for `CCC1(NC(=O)c2cc(Cl)cc(C)c2NC(=O)c2cc(OCC(F)(F)F)nn2-c2ncccc2Cl)CS(=O)(=O)C1` [T13.1.23], the pest or weed control at 400 ppm in data set [1], in data set [2], in data set [3] and in data set [4] was over 80% throughout. The pest or weed control at 12.5 ppm in data set [7] is over 80%.

`CCC1(NC(=O)c2cc(C#N)cc(C)c2NC(=O)c2cc(C(F)(F)F)nn2-c2ncccc2Cl)CS(=O)(=O)C1` [T13.1.93]: the pest or weed control at 400 ppm in data set [1], in data set [2], in data set [3], in data set [5] and in data set [6] was over 80% throughout.

Turning to `Cc1cc(C#N)cc(C(=O)NC2CS(=O)(=O)C2)c1NC(=O)c1cc(OCC(F)(F)F)nn1-c1ncccc1Cl` [T13.1.111], the pest or weed control at 400 ppm in data set [1], in data set [2], in data set [3], in data set [4] and in data set [6] was over 80% throughout.

With `CCC1(NC(=O)c2cc(C#N)cc(C)c2NC(=O)c2cc(OCC(F)(F)F)nn2-c2ncccc2Cl)CS(=O)(=O)C1` [T13.1.113], the pest or weed control at 400 ppm in data set [1], in data set [2], in data set [3], in data set [4], in data set [5] and in data set [6] was over 80% each time. In addition, the pest or weed control at 12.5 ppm in data set [7] is over 80%.

`Cc1cccc(C(=O)NC2CS(=O)(=O)C2)c1NC(=O)c1cc(C(F)(F)F)nn1-c1ncccc1Cl` [T13.1.361]: the pest or weed control at 400 ppm in data set [1], in data set [2] and in data set [3] was over 80% throughout. The same compound returned a pest or weed control at 12.5 ppm in data set [7] of over 80%.

In the case of `Cc1cc(Cl)cc(C(=O)NC2CS(=O)(=O)C2(C)C)c1NC(=O)c1cc(C(F)(F)F)nn1-c1ncccc1Cl` (stereo not drawn) [T15.1.1], the pest or weed control at 400 ppm in data set [1], in data set [2], in data set [3] and in data set [4] was over 80% throughout. This compound also registered a pest or weed control at 12.5 ppm in data set [7] of over 80%.

`Cc1cc(Cl)cc(C(=O)NC2C(C)(C)S(=O)(=O)C2(C)C)c1NC(=O)c1cc(C(F)(F)F)nn1-c1ncccc1Cl` [T16.1.1]: the pest or weed control at 400 ppm in data set [1], in data set [2] and in data set [3] was over 80% in each case.

On to `Cc1cc(C#N)cc(C(=O)NC2C(C)(C)S(=O)(=O)C2(C)C)c1NC(=O)c1cc(C(F)(F)F)nn1-c1ncccc1Cl` [T16.1.91], for which the pest or weed control at 400 ppm in data set [1], in data set [2], in data set [3], in data set [4] and in data set [6] was over 80% each time.

With `Cc1cc(Cl)cc(C(=O)NC2(C)CN(Cc3ccccc3)C2)c1NC(=O)c1cc(C(F)(F)F)nn1-c1ncccc1Cl` [T44.1.2, 2-(3-chloro-pyridin-2-yl)-5-trifluoromethyl-2H-pyrazole-3-carboxylic acid [4-chloro-2-methyl-6-(3-methyl-N-benzylazetidine-3-ylcarbamoyl)-phenyl]-amide], the pest or weed control at 400 ppm in data set [1], in data set [2], in data set [3], in data set [4] and in data set [6] was over 80% each time. This compound also came in with a pest or weed control at 12.5 ppm in data set [7] of over 80%.
